Experimental data from EP0093620A1, “Fungicidal N-phenylcarbamates” (priority 1982, dated 1983).

How the values were obtained:
[1] = system: drug-resistant strain of Sphaerotheca fuliginea; details: for pest or weed control at 200 ppm: Podosphaera fuliginea, in Cucumis sativus, topical, 240 h, read-out: Prevention value when inoculated with drug-resistant strain; for Prevention value when inoculated with drug-resistant strain: 200 ppm active ingredient, cucumber seedlings, spray, 10 days after inoculation
Experimental: (§1) Protective activity test on powdery mildew of cucumber (Sphaerotheca fuliginea):-
(§2) A flower pot of 90 ml volume was filed with sandy soil, and seeds of cucumber (var: Sagami-hanjiro) were sowed therein. Cultivation was carried out in a greenhouse for 8 days. Onto the resulting seedlings having cotyledons, the test compound formulated in emulsifiable concentrate or wettable powder and diluted with water was sprayed at a rate of 10 ml per pot. Then, the seedlings were inoculated with a spore suspension of the drug-resistant or drug-sensitive strain of Sphaerotheca fuliginea by spraying and further cultivated in the greenhouse. Ten days thereafter, the infectious state of-the plants was observed.
(§3) The leaves examined were measured for a percentage of infected area and classified into the corresponding disease indices, 0, 0.5, 1, 2, 4:
(§4) The disease severity was calculated according to the following equation: [formula]
(§5) The prevention value was calculated according to the following equation: [formula]

[2] = system: drug-sensitive strain of Sphaerotheca fuliginea; details: for pest or weed control at 200 ppm: Podosphaera fuliginea, in Cucumis sativus, topical, 240 h, read-out: Prevention value when inoculated with drug-sensitive strain; for Prevention value when inoculated with drug-sensitive strain: 200 ppm active ingredient, cucumber seedlings, spray, 10 days after inoculation
Experimental: as §1, §2, §3, §4, §5

[3] = system: drug-sensitive strain of Botrytis cinerea; test: Preventive effect on gray mold of cucumber, drug-sensitive strain; details: 200 ppm active ingredient, cucumber seedlings, mycelial disks, 3 days
Experimental: as §3, §4, §5
(§6) Preventive effect on gray mold of cucumber (Botrytis cinerea):-
(§7) Plastic pots of 90 ml volume were filled with sandy soil, and seeds of cucumber (var: Sagami-hanjiro) were sowed therein. Cultivation was carried out in a greenhouse for 8 days to obtain cucumber seedlings expanding cotyledons. Onto the resulting seedlings, the test compound formulated in emulsifiable concentrate or wettable powder and diluted with water was sprayed at a rate of 10 ml per pot. After air-drying, the seedlings were inoculated with mycelial disks (5 mm in diameter) of the drug-resistant or drug-sensitive strain of Botrytis cinerea by putting them on the leaf surfaces. After the plants were infected by incubating under high humidity at 20°C for 3 days, the rates of disease severity were observed.

[4] = system: drug-resistant strain of Venturia nashicola; test: Preventive effect on scab of pear, drug-resistant strain; details: 200 ppm active ingredient, pear seedlings, spray
Experimental: as §3, §4, §5
(§8) A plastic pot of 90 ml volume was filled with sandy soil, and seeds of pear (var: Chojuro) were sowed . therein. Cultivation was carried out in a greenhouse for 20 days. Onto the resulting seedlings, the test compound formulated in emulsifiable concentrate or wettable powder and diluted with water was sprayed at a rate of 10 ml per pot. Then, the seedlings were inoculated with a spore suspension of the drug-resistant or drug-sensitive strain of Venturia nashicola by spraying. The resulting plants were placed at 20°C under a condition of high humidity for 3 days and then at 20°C under irradiation with a fluorescent lamp for 20 days.

[5] = system: drug-sensitive strain of Venturia nashicola; test: Preventive effect on scab of pear, drug-sensitive strain; details: 200 ppm active ingredient, pear seedlings, spray
Experimental: as §3, §4, §5, §8

[6] = system: drug-sensitive strain of Cercospora beticola; details: for pest or weed control at 200 ppm: Cercospora beticola, in Beta vulgaris, topical, 240 h, read-out: Prevention value when inoculated with drug-sensitive strain; for Prevention value when inoculated with drug-sensitive strain: 200 ppm active ingredient, sugarbeet seedlings, spray, 10 days
Experimental: as §3, §4, §5
(§9) Preventive effect on cercospora leaf spot of sugarbeet (Cercospora beticola):-A flower pot of 90 ml volume was filled with sandy soil, and seeds of sugarbeet (var: Detroit dark red) were sowed therein. Cultivation was carried out in a greenhouse for 20 days. Onto the resulting seedlings, the test compound formulated in emulsifiable concentrate or wettable powder and diluted with water was sprayed at a rate of 10 ml per pot. Then, the seedlings were inoculated with a spore suspension of the drug-resistant or drug-sensitive strain of Cercospora beticola by spraying. The pot was covered with a polyvinyl chloride sheet to make a condition of high humidity, and cultivation was continued in the greenhouse for 10 days.

[7] = system: drug-resistant strain of Cercospora beticola; details: for pest or weed control at 200 ppm: Cercospora beticola, in Beta vulgaris, topical, 240 h, read-out: Prevention value when inoculated with drug-resistant strain; for Prevention value when inoculated with drug-resistant strain: 200 ppm active ingredient, sugarbeet seedlings, spray, 10 days
Experimental: as §3, §4, §5, §9

[8] = system: drug-resistant strain of Botrytis cinerea; test: Preventive effect on gray mold of cucumber, drug-resistant strain; details: 200 ppm active ingredient, cucumber seedlings, mycelial disks, 3 days
Experimental: as §3, §4, §5, §6, §7

Pyricularia oryzae = details: in vivo

SMILES | pest or weed control at 200 ppm [1] [%] | pest or weed control at 200 ppm [2] [%] | Prevention value when inoculated with drug-sensitive strain [3] [%] | Prevention value when inoculated with drug-resistant strain [4] [%] | Prevention value when inoculated with drug-sensitive strain [5] [%] | pest or weed control at 200 ppm [6] [%] | pest or weed control at 200 ppm [7] [%] | Prevention value when inoculated with drug-resistant strain [8] [%] | Prevention value when inoculated with drug-resistant strain [1] [%] | Prevention value when inoculated with drug-sensitive strain [2] [%] | Prevention value when inoculated with drug-sensitive strain [6] [%] | Prevention value when inoculated with drug-resistant strain [7] [%] | Prevention value (Pyricularia oryzae) [%]
CCCCNC(=O)n1c(NC(=O)OC)nc2ccccc21 [A, Methyl 1-(butyl-carbamoyl)benz-imidazol-2-yl-carbamate] | 0 | 100 | 100 | 0 | 100 | 100 | 0 | 0 |  |  |  |  | 
O=C(Nc1cccc(Cl)c1)OCC#CCCl [Barban, 4-chloro-2-butynyl N-(3-chlorophenyl)carbamate] | 25 | 0 |  |  |  | 0 | 34 |  |  |  |  |  | 
COC(=O)Nc1nc2ccccc2[nH]1 [C, Methyl benzimidazol-2-ylcarbamate] | 0 | 100 |  |  |  | 100 | 0 |  |  |  |  |  | 
O=C(Nc1cccc(Cl)c1)OCCCl [CEPC] |  |  |  |  |  |  |  |  | 0 | 0 | 0 | 0 | 
C#CC(C)OC(=O)Nc1cccc(Cl)c1 (stereo not drawn) [Chlorbufam, 1-methyl-2-propynyl N-(3-chlorophenyl)carbamate] | 0 | 100 |  |  |  | 100 | 0 |  |  |  |  |  | 
CC(C)OC(=O)Nc1cccc(Cl)c1 [Chlorpropham, isopropyl N-(3-chlorophenyl)carbamate] | 0 | 0 |  |  |  | 0 | 0 |  |  |  |  |  | 
CCOc1ccc(NC(=O)OC(C)C)cc1CC [Compound No. 50, isopropyl N-(3-ethyl-4-ethoxyphenyl)carbamate] | 100 | 0 | 0 | 98 | 0 | 0 | 100 | 100 |  |  |  |  | 
CCOc1ccc(N(C(=O)OC(C)C)C(=O)c2ccccc2)cc1COC [Compound No. 134, isopropyl N-benzoyl-N-(3-methoxymethyl-4-ethoxyphenyl)carbamate] |  |  | 0 |  |  |  |  | 100 |  |  |  |  | 
COC(=O)NC(=S)Nc1ccccc1NC(=S)NC(=O)OC [E, 1,2-Bis(3-methoxy-carbonyl-2-thio-ureido)benzene] | 0 | 100 | 100 | 0 | 100 | 100 | 0 | 0 |  |  |  |  | 
CCOP(=O)(Sc1ccccc1)Sc1ccccc1 [Edifenphos] |  |  |  |  |  |  |  |  |  |  |  |  | 97
CC(C)OC(=O)Nc1ccccc1 [Propham, isopropyl N-phenylcarbamate] | 0 | 0 |  |  |  | 0 | 0 |  |  |  |  |  | 
COC(=O)Nc1ccc(Cl)c(Cl)c1 [Swep] |  |  |  |  |  |  |  |  | 0 | 0 | 0 | 0 | 
CCOc1ccc(NC(=O)OC(C)C)cc1COC [compound 77, isopropyl N-(3-methoxymethyl-4-ethoxyphenyl)carbamate] | 100 | 0 | 0 | 100 | 0 | 0 | 100 | 100 |  |  |  |  | 
